# From patent publication US9725457B2, “6-amido derivatives of 4, 5-a epoxymorphinans for the treatment of pain” (Sloan-Kettering Institute for Cancer Research, priority 2010, dated 2017)
# Tests used:
# kappa3 opioid receptor = kappa3 opioid receptor (Mus musculus, UniProt P42866); experiment: Kappa3 opioid receptor competition binding in whole brain membrane homogenates
# Procedure: (§1) Receptor-Binding Assays: Competition-binding assays in MOR-CHO (mu), DOR-CHO (delta) and KOR-CHO (kappa) were performed at 25° C. in 50 mM potassium phosphate buffer, pH 7.4, containing 5 mM magnesium sulfate (only in the case of CHO-MOR). Specific binding was defined as the difference between total binding and nonspecific binding, determined in the presence of 8 μM levallorphan. 125I-SMGP1 (IBNtxA) was used as the universal radioligand to determine the relative affinity of drugs in MOR1-CHO, KOR1-CHO and DOR1-CHO. Protein concentrations were generally 20-40 μg/mL, incubation times were 90 minutes for all assays. (Majumdar et al., Bioorg Med Chem Lett. 2011, 21(13), 4001-4004). Kappa3 opioid receptor competition binding assays were carried out in whole brain membrane homogenates, performed at 25° C. in 50 mM potassium phosphate buffer, pH 7.4, containing 5 mM magnesium sulfate for 90 minutes in presence of 100 nM CTAP, 100 nM U50488h and 100 nM DPDPE. ^125I-SMGP1 was used as the radioligand in the assays, typically 500 micrograms of protein and 0.15 nM of the radioligand was used in a 0.5 mL assay. Specific binding was defined as the difference between total binding and nonspecific binding, determined in the presence of 8 μM levallorphan. Protein concentration was determined as described by Lowry et al. [J Biol Chem 1951, 193, 265-275; (1951)] using bovine serum albumin as the standard. Kd, Bmax, and Ki values were calculated by nonlinear regression analysis (GraphPadPrism). […] The “kappa3 opioid receptor” as referred to herein is the receptor first characterized by Clark et al. [J. Pharmacol. Exp. Ther. 251, 461-468 (1989)].
# mice [1] = experiment: Tolerance studies and effects of chronic administration (cross tolerance, precipitated withdrawal)
# Procedure: Tail-flick latencies were determined before and 30 minutes after each injection. See Gistrak et al. (1989) op. cit. […] Similarly, a group of mice (n=10) were made tolerant to test compound by twice daily injections to 1 mg/kg, s.c. for 10 days. […] Animals were evaluated for signs of diarrhea and jumping. See Gistrak et al. (1989) op. cit.
# [2] = target: T1, MOR (mu opioid receptor), MOR1-CHO (Mus musculus, UniProt P42866); experiment: Competition binding in MOR-CHO, 125I-SMGP1 radioligand
# T1 construct: expressed in transfected cells; host or cells: CHO
# Procedure: as §1
# [3] = target: T2, DOR (delta opioid receptor), DOR1-CHO (Mus musculus, UniProt P32300); experiment: Competition binding in DOR-CHO, 125I-SMGP1 radioligand
# T2 construct: expressed in transfected cells; host or cells: CHO
# Procedure: Receptor-Binding Assays: Competition-binding assays in MOR-CHO (mu), DOR-CHO (delta) and KOR-CHO (kappa) were performed at 25° C. in 50 mM potassium phosphate buffer, pH 7.4, containing 5 mM magnesium sulfate (only in the case of CHO-MOR). Specific binding was defined as the difference between total binding and nonspecific binding, determined in the presence of 8 μM levallorphan. […] Protein concentrations were generally 20-40 μg/mL, incubation times were 90 minutes for all assays. […] Specific binding was defined as the difference between total binding and nonspecific binding, determined in the presence of 8 μM levallorphan. […] Kd, Bmax, and Ki values were calculated by nonlinear regression analysis (GraphPadPrism).
# mice [4] = experiment: Radiant heat tail flick analgesia assay; assay type: in vivo
# Procedure: Tail Flick Analgesia Assays: Male CD-i mice (25-35 g; Charles River Breeding Laboratories, Wilmington, Mass.) were maintained on a 12-hr light/dark cycle with Purina rodent chow and water available ad libitum. Mice were housed in groups of five until testing. Analgesia was determined using the radiant heat tail-flick technique [D'Amour and Smith, J. Pharmacol. Exp. Ther. 72: 74-79 (1941)]. For the tail-flick assay, the latency to withdraw the tail from a focused light stimulus was measured electronically using a photocell. […] Post-treatment tail-flick latencies were determined as indicated for each experiment, and a maximal latency of 10 sec for tail-flick was used to minimize tissue damage. All experiments were replicated at least twice with each group in each experiment containing at least 10 mice and the combined results of all replications presented.
# mice [5] = experiment: Respiratory depression assessment (MouseOx pulse oximeter); settings: 2.5 mg/kg subcutaneously (five times the ED50), CD1 mice
# Procedure: Respiratory Depression assessment: The MouseOx Pulse Oximeter system (Starr Life Sciences, Pittsburgh, Pa.) was used to assess respiratory rate in awake, freely-moving, adult male CD1 mice. For 30 minutes, each animal was habituated to the device using a blank collar, after which the oximeter collar was placed on the animal. A five-second average breath rate was assessed at 5 minute intervals. A baseline for each animal was obtained over a 25 minute period prior to drug injection; beginning 15 minutes post-injection, measurements were then taken for a period of 35 minutes.
# mice [6] = experiment: Gastrointestinal motility (charcoal meal transit) assay; assay type: in vivo
# Procedure: Gastrointestinal motility assay: Gastrointestinal transit was determined as described by Paul and Pasternak [Eur. J. Pharmacol. 149 (1988), pp. 403-404.)]. In brief, after withholding food for 8 hours, animals received the indicated drug and then were given a charcoal meal (0.2 mL; 10% of purified charcoal and 2.5% of gum tragacanth, w/v) by gavage and were sacrificed 30 min later. The distance traveled by the charcoal meal was then measured and reported in centimeters.
# [7] = target: T3, KOR (kappa opioid receptor), KOR1-CHO (Mus musculus, UniProt P33534); experiment: Competition binding in KOR-CHO, 125I-SMGP1 radioligand
# T3 construct: expressed in transfected cells; host or cells: CHO
# Procedure: as §1
smiles,measurement,setting,value
O=C(NC1CCC2(O)C3Cc4ccc(O)c5c4C2(CCN3CC2CC2)C1O5)c1cccc(I)c1 (stereo not drawn) [SMGP 1],affinity for the kappa3 site in words,kappa3 opioid receptor,high affinity
same,physical dependence (withdrawal on challenge with an antagonist after chronic administration),"mice [1]; chronic administration, challenge with antagonist",no physical dependence
same,tolerance with chronic administration,"mice [1]; chronic administration, mice",some tolerance
same,analgesic response in highly morphine tolerant mice,mice [1]; highly morphine tolerant mice,normal analgesic response
same,cross tolerance to morphine,mice [1]; mice,no cross tolerance to morphine
same,Ki,[2],0.11 nM
same,Ki,[3],0.24 nM
same,ED50,"mice [4]; Mus musculus, male CD-i mice, radiant heat tail-flick",0.53 mg/kg
same,analgesic potency in mice relative to morphine,mice [4]; mice,potency greater than morphine
same,respiratory depression as compared to saline,mice [5],no statistically significant depression
same,effect on the inhibition of gastrointestinal transit,mice [6],minimal
same,Ki,[7],0.03 nM
